From patent US12053480B2, “Methods and pharmaceutical compositions for treating peripheral demyelinating diseases” (INSERM (INSTITUT NATIONAL DE LA SANTE ET DE LA RECHERCHE …, priority 2015, dated 2024)

Experiments:
[1] = test system: myelinating Schwann cells; experiment: mSC demyelination morphology (confocal microscopy) four days after nerve crush; format: in vivo, mouse; settings: intraperitoneal or intranerve injections before and daily after nerve injury
Description: (§1) Mice were anesthetized with isoflurane inhalation and placed under a Stemi2000 microscope (Zeiss). Incision area was shaved and cleaned using betadine solution. After incision, the gluteus superficialis and biceps femoris muscles were separated to reveal the cavity traversed by the sciatic nerve. The nerve was lift out using spatula and a thin glass needle filled with viral solution (8 μl) was introduced into the nerve with a micromanipulator. This solution was injected over 30 min with short pressure pulses using a Picospritzer III (Parker Hannifin) coupled to a pulse generator. After injection, the nerve was replaced into the cavity, the muscles were readjusted, and the wound was closed using clips (for further details see Gonzalez et al., 2014^3).
(§2) TRO19622 drug (Tocris bioscience, Ref. 2906) was diluted in ethanol to 20 mM and then, the solution was diluted in sterile PBS to 20 μM. TRO19622 treatments were realized by 3 mg/kg intraperitoneal (IP) injections of 20 mM solution or by intra sciatic nerve injections of 2 μl of drug solution 2 μM using a Hamilton syringe or a glass needle in sterile conditions 30 minutes before multiphoton image acquisitions or immunohistochemistry and demyelination studies respectively. Methyl jasmonate drug (Sigma-Aldrich, Ref. 392707) was diluted in 1 ml of sterile PBS to 1M or 3M. Methyl jasmonate treatments were realized by intra sciatic nerve injections of 1 μl of drug solution using a glass needle and micromanipulator in sterile conditions following the same virus injections procedure (see in vivo virus injection in the sciatic nerve method) two hours before multiphoton image acquisition. […] All drug concentrations were previously evaluated by Bordet et al, 2007^5; Goldin et al, 2008^6; Sharov et al, 2007^7.
Finally we also investigated the demyelination using typical defects induced in the cellular morphology of mSC. Nerves expressing control or VDAC1 shRNAs were crushed to induce demyelination and four days later, when demyelination is maximal, we analyzed the morphology of VDAC1-silenced mSC using confocal microscopy as described previously^19. mSC display long homogenous noodle-like morphology with a regular diameter but during demyelination, they acquire a heterogeneous morphology often alterning large structures (myelin ovoids) with thin processes and their extremities split in fine extensions.

[2] = target: T1, VDAC1 (Mus musculus, UniProt Q60932); experiment: Cytoplasmic calcium imaging (GCaMP2, multiphoton) in mSC of mouse sciatic nerve; format: in vivo
T1 construct: strongly expressed in mSC mitochondria; from tissue; host or cells: myelinating Schwann cells (mSC) of the sciatic nerve of living mice (wild type; db/db and +/db in A10)
Description: as §1, §2
First injected mouse was anesthetized with 5% of isoflurane a 1.5% of oxygen into the anesthesia system box (World Precision Instruments, Ref. EZ-B800) for 5 minutes. Anesthesia controls were realized^8. Then, mouse was placed in anesthesia mask and the incision area was shaved and cleaned with betadine and ethanol 70% solution. Incision was realized using a scalpel and the skin was retracted using forceps in order to expose the gluteus superficialis and bleeps femoris muscles. Next, the connective tissue that connects both muscles was cut and the sciatic nerve was gently lifted out using a spatula. A flexible bridge was slide below sciatic nerve and it was placed into a plastic first pool fixed to the bridge. Mouse was placed under the multiphoton microscope, the bridge was fixed using magnetic brackets to avoid physiological movement and mouse legs were fixed using clippers. Microscope dark box temperature is controlled to 37° C. during all time-lapse imaging. Finally, a second pool was fixed to the first pool using a drop of agarose low melting 3% (Promega, Ref. V2111) in Leibovitz's L15 medium (Gibco Life Technologies) and filled with deionized water to immerse the objectives 20× or 63× (Carl Zeiss Microscopy).
All time-lapse images were obtained with a multiphoton microscope Zeiss LSM 7 MP OPO. Mitochondria motility images were acquired by time-lapse recording of one image every five minutes during five hours at 920 nm. GCaMP2 and SypHer probe images were acquired by time-lapse recording of one image every fifteen minutes during five hours at 985 nm. Images were acquired to constant 1% of laser intensity to 100 msec of acquisition time with 512×512 resolution and 10 images of z-stack of 20 μm. Images were saved in Zeiss .czi format and processed using Image J program. For further details see Gonzalez et al., 201X^8
To characterize mitochondria physiology during the demyelination process we combined two in vivo methods. We used the nerve crush model to reliably induce demyelination in the mouse sciatic nerve and a viral approach^19 allowing the expression of different fluorescent probes selectively into mitochondria of myelinating Schwann cells (mSC) in mouse sciatic nerve. […]

[3] = test system: diabetic (db/db) mice; experiment: Sciatic nerve myelin morphometry (toluidine blue, TEM) in diabetic mice; format: in vivo, mouse; settings: diabetic mice treated daily for one month
Description: Sciatic nerves of 20 and 28 weeks old diabetic mice or 16 and 24 weeks old CMT1A rats treated with TRO19622 drug or PBS were fixed for 20 min in situ with 4% PFA and 2.5% glutaraldehyde, in 0.1 M phosphate buffer (pH7.3). Then nerves were removed and postfixed overnight in the same buffer.
After washing 30 min in 0.2M PBS phosphate buffer, the nerves were incubated with 2% osmic acid in 0.1M phosphate buffer for 90 minutes at room temperature. Then, samples were washed in 0.2M PBS phosphate buffer, dehydrated using ethanol gradient solutions and embedded in epoxy resin. For electron microscopy of sciatic nerves, ultrathin (70 nm) cross-sections were cut and stained with 1% uranylacetate solution and lead-citrate and analyzed using a HITACHI H7100 electron microscope at the ‘Centre des Resources en Imagerie Cellulaire’ (CRIC) (for further details see Cotter et al., 2010^9). […] G-ratio was determined using GRatioCalculator plugin of Image J. At less 200 fibers per animal were analysed.
To go further 16-weeks-old diabetic and control mice were treated daily with vehicle or TRO19622 for one month. One day and two months after drug treatment, myelin was evaluated in the sciatic nerve using toluidine blue staining and transmission electron microscopy (TEM) to measure the g-ratio (axon diameter on total myelinated fiber diameter).

T1 sequence (Q60932 14-296): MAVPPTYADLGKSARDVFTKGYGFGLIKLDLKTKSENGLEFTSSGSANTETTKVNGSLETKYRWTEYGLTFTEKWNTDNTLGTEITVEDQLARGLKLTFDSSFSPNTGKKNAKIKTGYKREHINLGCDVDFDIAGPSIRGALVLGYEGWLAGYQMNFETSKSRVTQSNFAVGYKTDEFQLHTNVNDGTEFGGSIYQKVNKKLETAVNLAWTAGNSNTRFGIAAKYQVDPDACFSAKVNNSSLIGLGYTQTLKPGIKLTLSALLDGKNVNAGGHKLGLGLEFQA

part of the calcium appearing in the cytoplasm after nerve crush that is not abolished (non-mitochondrial origin) ([2]; after nerve crush with VDAC1 silenced or blocked): 13% | presence of cytoplasmic calcium in mSC after crush ([2]; cytoplasmic GCaMP2, after nerve crush): strong reduction
Structure (SMILES): CC(C)CCC[C@@H](C)[C@H]1CC[C@H]2[C@@H]3CCC4=C/C(=N\O)CC[C@]4(C)[C@H]3CC[C@]12C [TRO19622, (NZ)—N-[(8S,9S,10R,13R,14S,17R)-10,13-dimethyl-17-[(2R)-6-methylheptan-2-yl]-1,2,6,7,8,9,11,12,14,15,16,17-dodecahydrocyclopenta[a]phenanthren-3-ylidene]hydroxylamine]
number of demyelinating cells after nerve injury [1]: strongly reduced | axon number and diameter [3]: No differences | g-ratio ([3]; compared to vehicle): significant decrease
